Measurements reported in patent US7371207B2 (Wyeth, priority 2002, dated 2008).

Tested on: gene expression in the kidney
Assay: GeneChip microarray survey of E2 regulated gene expression, kidney
Description: FIG. 1 depicts a pattern analysis generated by a GeneChip microarray analysis. […] Two hours following the final dose, the mice were euthanized and 13 tissues removed for RNA preparation. Two independent studies were performed, with total RNA pooled from two groups of three animals for each condition. Gene expression was quantified by GeneChip microarrays using murine U74 sub A arrays. Data were analyzed for patterns indicating either ERα or ERβ dependent regulation as shown. […] The number of genes in each tissue that matched the theoretical induction (↑) or repression (↓) patterns for ERα or ERβ are indicated.
FIGS. 2A-2C show a series of bar graphs showing gene expression levels of known genes regulated in the kidney in an ERα pattern. […] Expression was measured in two independent sets of animals, with two groups of animals for each treatment in each study. A gene name abbreviation is shown above each graph, with the corresponding Unigene designation shown below.
One week later, the animals were ovariectomized.
GeneChip—Total RNA was prepared separately from each individual organ by using Trizol (Invitrogen) followed by subsequent repurification on Rneasy columns (Qiagen). In general, two pools of RNA were created using equal amounts of RNA from three mice. For small organs such as pituitary, an equal amount of RNA from six animals was combined.
Target Preparation and Array Hybridization—Total RNA was used to generate biotin labeled cRNA target as described (8) which was hybridized to the murine MG_U74Av2 probe arrays (Affymetrix, Santa Clara, Calif.) for 16 h at 45° C. Eleven biotin-labeled cRNAs at defined concentration were spiked into each hybridization and used to convert average difference values to frequencies expressed as parts per million.
The resulting data set was queried for genes whose regulation was dependent on ERα or ERβ.

C[C@]12CC[C@@H]3c4ccc(O)cc4CC[C@H]3[C@@H]1CC[C@@H]2O [E2, 17β-estradiol]
E2 Expr (/evansm/Kidney, mouse/Study 1, U74v2/WT E2 kidney (81036)) (101979_at, AF055638, growth arrest and DNA-damage-inducible 45 gamma): 42
E2 Expr (/evansm/Kidney, mouse/Study 1, U74v2/WT E2 kidney (81036)) (102693_f_at, J00389, kallikrein 13, kallikrein 26): 86
E2 Expr (/evansm/Kidney, mouse/Study 1, U74v2/WT E2 kidney (81036)) (102788_s_at, U70132, paired-like homeodomain transcription factor 2): 23
E2 Expr (/evansm/Kidney, mouse/Study 1, U74v2/WT E2 kidney (81036)) (103048_at, M12731, neuroblastoma myc-related oncogene 1): 39
E2 Expr (/evansm/Kidney, mouse/Study 1, U74v2/WT E2 kidney (81036)) (103556_at, AI840158, angiopoletin-like 2): 24
E2 Expr (/evansm/Kidney, mouse/Study 1, U74v2/WT E2 kidney (81036)) (103729_at, M36775, laminin, alpha 1): 17
E2 Expr (/evansm/Kidney, mouse/Study 1, U74v2/WT E2 kidney (81036)) (103739_at, AW230977, RIKEN cDNA 1110017N23 gene): 33
E2 Expr (/evansm/Kidney, mouse/Study 1, U74v2/WT E2 kidney (81036)) (104221_at, AB017189, solute carrier family 7 (cationic amino acid transporter, y+ system), member 5): 61
E2 Expr (/evansm/Kidney, mouse/Study 1, U74v2/WT E2 kidney (81036)) (104477_at, AW047643, Mm.29940): 15
E2 Expr (/evansm/Kidney, mouse/Study 1, U74v2/WT E2 kidney (81036)) (104495_f_at, Y00500, kallikrein 5): 115
E2 Expr (/evansm/Kidney, mouse/Study 1, U74v2/WT E2 kidney (81036)) (104497_f_at, X03994, kallikrein 8): 53
E2 Expr (/evansm/Kidney, mouse/Study 1, U74v2/WT E2 kidney (81036)) (104550_at, AW123273, ?CYP2S1 Cytochrome P450): 22
E2 Expr (/evansm/Kidney, mouse/Study 1, U74v2/WT E2 kidney (81036)) (104776_at, AA600617, Mm.33238): 4
E2 Expr (/evansm/Kidney, mouse/Study 1, U74v2/WT E2 kidney (81036)) (104880_at, AI843154, Mm.33730): 2
E2 Expr (/evansm/Kidney, mouse/Study 1, U74v2/WT E2 kidney (81036)) (105737_at, AI851277, Mm.39735): 8
E2 Expr (/evansm/Kidney, mouse/Study 1, U74v2/WT E2 kidney (81036)) (106195_at, AI851948, Mm.22808): 8
E2 Expr (/evansm/Kidney, mouse/Study 1, U74v2/WT E2 kidney (81036)) (107993_at, AI847249, Mm.27680): 9
E2 Expr (/evansm/Kidney, mouse/Study 1, U74v2/WT E2 kidney (81036)) (108265_at, AW120464, Mm.54158): 12
E2 Expr (/evansm/Kidney, mouse/Study 1, U74v2/WT E2 kidney (81036)) (108749_at, AA611885, Mm.23047): 34
E2 Expr (/evansm/Kidney, mouse/Study 1, U74v2/WT E2 kidney (81036)) (108851_at, AW125899, Ras-like protein): 10
E2 Expr (/evansm/Kidney, mouse/Study 1, U74v2/WT E2 kidney (81036)) (109176_at, AI846059, RAI17 Retinoic acid Induced 17): 79
E2 Expr (/evansm/Kidney, mouse/Study 1, U74v2/WT E2 kidney (81036)) (110591_at, AA270831, SH3 domain protien D19): 23
E2 Expr (/evansm/Kidney, mouse/Study 1, U74v2/WT E2 kidney (81036)) (110767_r_at, AA959550, vascular endothelial growth factor): 37
E2 Expr (/evansm/Kidney, mouse/Study 1, U74v2/WT E2 kidney (81036)) (110850_at, AA959574, NRIP1 Nuclear receptor interacting protein 1, RIP140): 76
E2 Expr (/evansm/Kidney, mouse/Study 1, U74v2/WT E2 kidney (81036)) (111046_r_at, AI957367, 17b dehydrogenase A homolog): 17
E2 Expr (/evansm/Kidney, mouse/Study 1, U74v2/WT E2 kidney (81036)) (113125_at, AI851671, signal transducer and activator of transcription 5B): 31
E2 Expr (/evansm/Kidney, mouse/Study 1, U74v2/WT E2 kidney (81036)) (114903_at, AI447633, Mm.26357): 96
E2 Expr (/evansm/Kidney, mouse/Study 1, U74v2/WT E2 kidney (81036)) (116273_at, AW123862, Mm.31953): 7
E2 Expr (/evansm/Kidney, mouse/Study 1, U74v2/WT E2 kidney (81036)) (117208_at, AI838208, RIKEN cDNA 1110003O08 gene): 37
E2 Expr (/evansm/Kidney, mouse/Study 1, U74v2/WT E2 kidney (81036)) (129147_r_at, AI931796, similar to TYROSINE-PROTEIN KINASE RECEPTOR TIE-1 PRECURSOR): 6
E2 Expr (/evansm/Kidney, mouse/Study 1, U74v2/WT E2 kidney (81036)) (131149_at, AW214502, RIKEN cDNA 5033417D07 gene): 7
E2 Expr (/evansm/Kidney, mouse/Study 1, U74v2/WT E2 kidney (81036)) (131226_at, AI842542, Mm.23157): 8
E2 Expr (/evansm/Kidney, mouse/Study 1, U74v2/WT E2 kidney (81036)) (132403_at, AI788603, similar to TSC1_RAT HAMARTIN (TUBEROUS SCLEROSIS 1 PROTEIN HOMOLOG)): 19
E2 Expr (/evansm/Kidney, mouse/Study 1, U74v2/WT E2 kidney (81036)) (133139_at, AW122295, regulator of G-protein signaling 4): 4
E2 Expr (/evansm/Kidney, mouse/Study 1, U74v2/WT E2 kidney (81036)) (133672_at, AI451032, Mm.32389): 11
E2 Expr (/evansm/Kidney, mouse/Study 1, U74v2/WT E2 kidney (81036)) (134303_at, AI553493, Mm.35319): 11
E2 Expr (/evansm/Kidney, mouse/Study 1, U74v2/WT E2 kidney (81036)) (136270_at, AI854101, Highly similar to CRFB MOUSE CORTICOTROPIN-RELEASING FACTOR BINDING PROTEIN PRECURSOR): 12
E2 Expr (/evansm/Kidney, mouse/Study 1, U74v2/WT E2 kidney (81036)) (137525_at, AI098139, Mm.38027): 4
E2 Expr (/evansm/Kidney, mouse/Study 1, U74v2/WT E2 kidney (81036)) (139531_at, AW120795, Mm.45188): 40
E2 Expr (/evansm/Kidney, mouse/Study 1, U74v2/WT E2 kidney (81036)) (162645_at, AI851427, protein kinase, cAMP dependent regulatory, type II beta): 11
E2 Expr (/evansm/Kidney, mouse/Study 1, U74v2/WT E2 kidney (81036)) (162964_at, AI854153, regulator of G-protein signaling 4): 11
E2 Expr (/evansm/Kidney, mouse/Study 1, U74v2/WT E2 kidney (81036)) (162969_at, AW123298, Edil3 EGF-like repeats and discordin I-like domains 3): 34
E2 Expr (/evansm/Kidney, mouse/Study 1, U74v2/WT E2 kidney (81036)) (162976_at, AI838662, RIKEN cDNA 2700007F12 gene): 10
E2 Expr (/evansm/Kidney, mouse/Study 1, U74v2/WT E2 kidney (81036)) (163186_at, AI852882, RIKEN cDNA 2610510B01 gene): 61
E2 Expr (/evansm/Kidney, mouse/Study 1, U74v2/WT E2 kidney (81036)) (163224_at, AI843147, IGSF1 Immunoglobulin superfamily, member 1): 27
E2 Expr (/evansm/Kidney, mouse/Study 1, U74v2/WT E2 kidney (81036)) (163370_at, AI591488, Osbpl3 Oxysterol binding protien-like 3): 10
E2 Expr (/evansm/Kidney, mouse/Study 1, U74v2/WT E2 kidney (81036)) (163941_at, AI646761, RIKEN cDNA 1110018J23 gene): 71
E2 Expr (/evansm/Kidney, mouse/Study 1, U74v2/WT E2 kidney (81036)) (164051_at, AV359458, Mm.17850): 195
E2 Expr (/evansm/Kidney, mouse/Study 1, U74v2/WT E2 kidney (81036)) (164520_f_at, AV302474, Tmprss2 Transmembrane protease, serine 2): 6
E2 Expr (/evansm/Kidney, mouse/Study 1, U74v2/WT E2 kidney (81036)) (165032_i_at, AV365688, RIKEN cDNA 4933429H19 gene): 42
E2 Expr (/evansm/Kidney, mouse/Study 1, U74v2/WT E2 kidney (81036)) (165248_f_at, AV035328, placental lactogen 2): 38
E2 Expr (/evansm/Kidney, mouse/Study 1, U74v2/WT E2 kidney (81036)) (165569_at, AI847273, Mm.22305): 5
E2 Expr (/evansm/Kidney, mouse/Study 1, U74v2/WT E2 kidney (81036)) (165678_i_at, AI482191, Mm.33178): 11
E2 Expr (/evansm/Kidney, mouse/Study 1, U74v2/WT E2 kidney (81036)) (165710_at, AA815844, sodium channel, nonvoltage-gated 1 gamma): 9
E2 Expr (/evansm/Kidney, mouse/Study 1, U74v2/WT E2 kidney (81036)) (165772_at, AI851899, RIKEN cDNA 0610039J01 gene): 29
E2 Expr (/evansm/Kidney, mouse/Study 1, U74v2/WT E2 kidney (81036)) (165866_f_at, AV291803, ribosomal protein L12): 40
E2 Expr (/evansm/Kidney, mouse/Study 1, U74v2/WT E2 kidney (81036)) (166021_at, AI481830, Mm.49448): 12
E2 Expr (/evansm/Kidney, mouse/Study 1, U74v2/WT E2 kidney (81036)) (166843_at, AI851523, Mm.200318): 174
E2 Expr (/evansm/Kidney, mouse/Study 1, U74v2/WT E2 kidney (81036)) (166849_at, AI853080, Mm.40718): 16
E2 Expr (/evansm/Kidney, mouse/Study 1, U74v2/WT E2 kidney (81036)) (167023_f_at, AV016619, biglycan): 3
E2 Expr (/evansm/Kidney, mouse/Study 1, U74v2/WT E2 kidney (81036)) (168876_f_at, AV044014, kallikrein 21): 75
E2 Expr (/evansm/Kidney, mouse/Study 1, U74v2/WT E2 kidney (81036)) (169068_i_at, AV206066, RIKEN cDNA 4930434J08 gene): 2
E2 Expr (/evansm/Kidney, mouse/Study 1, U74v2/WT E2 kidney (81036)) (170686_f_at, AV362687, Mm.89845): 58
E2 Expr (/evansm/Kidney, mouse/Study 1, U74v2/WT E2 kidney (81036)) (170896_at, AV066592, Immune associated nucleotide 4): 3
E2 Expr (/evansm/Kidney, mouse/Study 1, U74v2/WT E2 kidney (81036)) (171390_i_at, AV299689, Mm.21070): 3
ABCC3 expression in kidney (mRNA level): induced mRNA levels
NTT73 expression in kidney (mRNA level): increased mRNA levels
CIS2 expression in kidney (mouse, in vivo): induction
COR1 (RDC1) expression in kidney (mouse, in vivo): induced expression
CYP27B1 expression in kidney (mouse, in vivo): induction
ELF3 expression in kidney (mouse, in vivo): induced expression
GNBP3 expression in kidney (mouse, in vivo): induced expression
PHD2 expression in kidney (mouse, in vivo): induced expression
RGS3 expression in kidney (mouse, in vivo): induced expression
STAT5A expression in kidney (mouse, in vivo): induced expression
STAT5B expression in kidney (mouse, in vivo): induced expression
